Reference: ChEMBL document CHEMBL1201862, “PubChem BioAssay data set” (2004)
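Results reflect a 48-hour exposure of cells in 96-well plates to compound at five concentrations. GI50 is the concentration that inhibits growth by half.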 The source made the active and inactive calls. No stated cut-off is given here; in the data, active = GI50 up to about 1.1 µM and inactive = higher.

Key:
Test in all cases: NCI anticancer screen, dose series, 48 h
786-0 = tested on: 786-0
A549 = tested on: A549
ACHN = tested on: ACHN
CCRF-CEM = tested on: CCRF-CEM
DU-145 = tested on: DU-145
EKVX = tested on: EKVX
HCC 2998 = tested on: HCC 2998
MCF7 = tested on: MCF7
MDA-MB-231 = tested on: MDA-MB-231
MDA-MB-435 = tested on: MDA-MB-435
MDA-N = tested on: MDA-N
NCI-H226 = tested on: NCI-H226
NCI-H23 = tested on: NCI-H23
OVCAR-4 = tested on: OVCAR-4
OVCAR-8 = tested on: OVCAR-8
SF-295 = tested on: SF-295
SN12C = tested on: SN12C
SW-620 = tested on: SW-620
T47D = tested on: T47D
SK-OV-3 = tested on: SK-OV-3

| Structure (SMILES) | GI50 (786-0) | GI50 (A549) | GI50 (ACHN) | GI50 (CCRF-CEM) | GI50 (DU-145) | GI50 (EKVX) | GI50 (HCC 2998) | GI50 (MCF7) | GI50 (MDA-MB-231) | GI50 (MDA-MB-435) | GI50 (MDA-N) | GI50 (NCI-H226) | GI50 (NCI-H23) | GI50 (OVCAR-4) | GI50 (OVCAR-8) | GI50 (SF-295) | GI50 (SN12C) | GI50 (SW-620) | GI50 (T47D) | GI50 (SK-OV-3) |
| --- | --- | --- | --- | --- | --- | --- | --- | --- | --- | --- | --- | --- | --- | --- | --- | --- | --- | --- | --- | --- |
| C1CNCCNCCN1 | > 100 µM (inactive) | > 100 µM (inactive) | > 100 µM (inactive) | > 100 µM (inactive) | > 100 µM (inactive) | > 100 µM (inactive) | > 100 µM (inactive) | > 100 µM (inactive) | > 100 µM (inactive) | > 100 µM (inactive) | > 100 µM (inactive) | > 100 µM (inactive) | > 100 µM (inactive) | > 100 µM (inactive) | > 100 µM (inactive) | > 100 µM (inactive) | > 100 µM (inactive) | > 100 µM (inactive) | > 100 µM (inactive) | – |
| Cc1c(C(=O)OCc2ccccc2)[n+]([O-])c2ccccc2[n+]1[O-] | 44.1 µM (inactive) | 22.2 µM (inactive) | 74.3 µM (inactive) | < 0.01 µM (active) | 19.9 µM (inactive) | 25.8 µM (inactive) | 30.8 µM (inactive) | 19.5 µM (inactive) | 20.8 µM (inactive) | 26.4 µM (inactive) | 41.6 µM (inactive) | 14.5 µM (inactive) | 33.7 µM (inactive) | 20.8 µM (inactive) | 48.6 µM (inactive) | 32.7 µM (inactive) | 31.3 µM (inactive) | – | 13.4 µM (inactive) | 28 µM (inactive) |
| CN(C)CCCNC(=O)N/N=C/c1ccc([N+](=O)[O-])cc1 | > 100 µM (inactive) | > 100 µM (inactive) | > 100 µM (inactive) | > 100 µM (inactive) | > 100 µM (inactive) | – | > 100 µM (inactive) | 53.1 µM (inactive) | > 100 µM (inactive) | > 100 µM (inactive) | 82.4 µM (inactive) | > 100 µM (inactive) | > 100 µM (inactive) | – | > 100 µM (inactive) | 78.2 µM (inactive) | > 100 µM (inactive) | > 100 µM (inactive) | 86.1 µM (inactive) | > 100 µM (inactive) |
| O=C(Cc1ccccc1)NNc1nc(NNC(=O)c2ccncc2)nc(Nc2ccc([N+](=O)[O-])cc2)n1 | > 10 µM (inactive) | > 10 µM (inactive) | > 10 µM (inactive) | 7.57 µM (inactive) | > 10 µM (inactive) | 9.46 µM (inactive) | > 10 µM (inactive) | > 10 µM (inactive) | > 10 µM (inactive) | > 10 µM (inactive) | 8.59 µM (inactive) | – | 6.79 µM (inactive) | > 10 µM (inactive) | > 10 µM (inactive) | > 10 µM (inactive) | > 10 µM (inactive) | > 10 µM (inactive) | > 10 µM (inactive) | > 10 µM (inactive) |
| O=C1CC(Cc2n[nH]c3c2CCCC3)CC(=O)N1 | > 100 µM (inactive) | > 100 µM (inactive) | – | 37.1 µM (inactive) | > 100 µM (inactive) | > 100 µM (inactive) | > 100 µM (inactive) | > 100 µM (inactive) | > 100 µM (inactive) | > 100 µM (inactive) | > 100 µM (inactive) | > 100 µM (inactive) | > 100 µM (inactive) | > 100 µM (inactive) | > 100 µM (inactive) | > 100 µM (inactive) | > 100 µM (inactive) | > 100 µM (inactive) | > 100 µM (inactive) | > 100 µM (inactive) |
| O=C1/C(=C/c2ccccc2)CCCC1CN1CCCCC1 (stereo not given) | 1.87 µM (inactive) | 17.5 µM (inactive) | 3.4 µM (inactive) | – | 14.3 µM (inactive) | 15.1 µM (inactive) | 15.6 µM (inactive) | 0.428 µM (active) | 2 µM (inactive) | 2 µM (inactive) | 2.11 µM (inactive) | 3.45 µM (inactive) | 4.97 µM (inactive) | 2.05 µM (inactive) | 2.09 µM (inactive) | 19.1 µM (inactive) | 5.9 µM (inactive) | 1.33 µM (inactive) | 1.77 µM (inactive) | 17.2 µM (inactive) |
| CN(CCCNC(=O)c1nn(-c2ccc(Cl)cc2Cl)c2c1Cc1ccccc1-2)CCCNC(=O)c1nn(-c2ccc(Cl)cc2Cl)c2c1Cc1ccccc1-2 | 1.67 µM (inactive) | 1.77 µM (inactive) | 1.67 µM (inactive) | 0.993 µM (active) | 1.77 µM (inactive) | 1.66 µM (inactive) | 1.64 µM (inactive) | 1.55 µM (inactive) | 1.87 µM (inactive) | 1.48 µM (inactive) | 1.7 µM (inactive) | – | 2 µM (inactive) | 0.285 µM (active) | 1.81 µM (inactive) | 1.72 µM (inactive) | 1.67 µM (inactive) | 1.48 µM (inactive) | 1.92 µM (inactive) | 1.78 µM (inactive) |
| C[C@H](NC(=O)C(C)(Cc1ccc(O)cn1)NC(=O)c1ccccc1)c1ccccc1 (stereo not given in full) | > 100 µM (inactive) | > 100 µM (inactive) | > 100 µM (inactive) | > 100 µM (inactive) | > 100 µM (inactive) | > 100 µM (inactive) | > 100 µM (inactive) | > 100 µM (inactive) | > 100 µM (inactive) | > 100 µM (inactive) | > 100 µM (inactive) | > 100 µM (inactive) | > 100 µM (inactive) | > 100 µM (inactive) | > 100 µM (inactive) | > 100 µM (inactive) | > 100 µM (inactive) | > 100 µM (inactive) | > 100 µM (inactive) | – |
| CCC1C(NC(=O)OC)C(=O)N1[C@@H](C)c1ccccc1 (stereo not given in full) | > 100 µM (inactive) | – | > 100 µM (inactive) | – | > 100 µM (inactive) | > 100 µM (inactive) | > 100 µM (inactive) | > 100 µM (inactive) | > 100 µM (inactive) | > 100 µM (inactive) | > 100 µM (inactive) | > 100 µM (inactive) | > 100 µM (inactive) | > 100 µM (inactive) | > 100 µM (inactive) | > 100 µM (inactive) | > 100 µM (inactive) | > 100 µM (inactive) | > 100 µM (inactive) | > 100 µM (inactive) |
| O=C(O)[C@@H]1C[C@@H](O)CN1C(=O)OCc1ccccc1 | > 100 µM (inactive) | > 100 µM (inactive) | > 100 µM (inactive) | > 100 µM (inactive) | > 100 µM (inactive) | > 100 µM (inactive) | > 100 µM (inactive) | > 100 µM (inactive) | > 100 µM (inactive) | > 100 µM (inactive) | > 100 µM (inactive) | > 100 µM (inactive) | > 100 µM (inactive) | > 100 µM (inactive) | > 100 µM (inactive) | > 100 µM (inactive) | > 100 µM (inactive) | > 100 µM (inactive) | > 100 µM (inactive) | > 100 µM (inactive) |
| CCCCCCCCCCCCCCCCCCOCC(CO[PH](=O)O)OCCCCCCCCCCCCCCCCCC (stereo not given) | > 50 µM (inactive) | > 50 µM (inactive) | – | – | > 50 µM (inactive) | > 50 µM (inactive) | > 50 µM (inactive) | > 50 µM (inactive) | > 50 µM (inactive) | > 50 µM (inactive) | > 50 µM (inactive) | > 50 µM (inactive) | – | > 50 µM (inactive) | > 50 µM (inactive) | – | > 50 µM (inactive) | > 50 µM (inactive) | > 50 µM (inactive) | > 50 µM (inactive) |
| COC(=O)c1cccc(C)c1C1CN=NC12Cc1cc(C)cc(C)c1C2=O (stereo not given) | 48.8 µM (inactive) | 33.5 µM (inactive) | 28.8 µM (inactive) | 28.4 µM (inactive) | 41.3 µM (inactive) | 26.3 µM (inactive) | 26.5 µM (inactive) | 40.4 µM (inactive) | 30.1 µM (inactive) | 30.1 µM (inactive) | 26.7 µM (inactive) | 61.5 µM (inactive) | 41.4 µM (inactive) | 51.1 µM (inactive) | 44.8 µM (inactive) | – | 37.2 µM (inactive) | 29.7 µM (inactive) | 23.2 µM (inactive) | – |
| COC(=O)NC(Nc1ccc(Cl)cc1Cl)(C(F)(F)F)C(F)(F)F | > 100 µM (inactive) | 38.4 µM (inactive) | 10.5 µM (inactive) | 28.5 µM (inactive) | 35.3 µM (inactive) | 48.9 µM (inactive) | 45.7 µM (inactive) | > 100 µM (inactive) | > 100 µM (inactive) | 25.1 µM (inactive) | 34.7 µM (inactive) | > 100 µM (inactive) | > 100 µM (inactive) | – | 70.8 µM (inactive) | > 100 µM (inactive) | 80.4 µM (inactive) | 30.9 µM (inactive) | 47 µM (inactive) | 73.6 µM (inactive) |
| N#Cc1c(Cl)cccc1Oc1ccc(S(=O)(=O)N/C(=N\O)Nc2ccc(Cl)cc2)cc1 | 13.6 µM (inactive) | 16.8 µM (inactive) | 15.6 µM (inactive) | 18.9 µM (inactive) | 18.8 µM (inactive) | 15.5 µM (inactive) | 14.7 µM (inactive) | 17.1 µM (inactive) | 16.3 µM (inactive) | 17.9 µM (inactive) | 16.4 µM (inactive) | 24.8 µM (inactive) | 17.6 µM (inactive) | 14.8 µM (inactive) | 18 µM (inactive) | 17.2 µM (inactive) | 14.8 µM (inactive) | 17.6 µM (inactive) | 13.2 µM (inactive) | – |
| O=C(CCCCCCC(=O)Nc1cccnc1)NO [PYROXAMIDE] | 7.21 µM (inactive) | 21.7 µM (inactive) | 15.7 µM (inactive) | 1.31 µM (inactive) | 3.71 µM (inactive) | 47.5 µM (inactive) | 4.61 µM (inactive) | 3.8 µM (inactive) | > 100 µM (inactive) | 2.79 µM (inactive) | 2.62 µM (inactive) | 36.3 µM (inactive) | 13 µM (inactive) | 10.4 µM (inactive) | 1.78 µM (inactive) | 21.2 µM (inactive) | – | 3.4 µM (inactive) | 1.47 µM (inactive) | 5.19 µM (inactive) |
